Measured values: patent publication US6537754B1, “Association of kinesin with sensitivity to chemotherapeutic drugs” (Board of Trustees of the University of Illinois, priority 1990, dated 2003)
Starred links: 1 amine or outer side, 2 acyl side, 3 side chain; linkers in the order of their positions; H or OH if unused. Positions of bridges follow the written chain, without caps; N, C: chain ends. Non-standard residues stand in square brackets, D forms with d. Residues, ends and D or L forms follow the SMILES beside them. Chains are numbered I, II in the order given. Actinocin(9to1) = Cc1c2oc3c(C)ccc(C(=O)[*:1])c3nc-2c(C(=O)[*:2])c(N)c1=O; NMeV = CN[C@H](C(=O)O)C(C)C; Sar = CNCC(=O)O

Assays:
NIH 3T3 cells [1] = assay: short-term (4-day) growth inhibition assay, methylene blue staining, cells carrying anti-khcs GSE vs insert-free vector control; format: cell-based, mouse; conditions: NIH 3T3 infected with anti-khcs virus vs insert-free vector; 4 days drug exposure
Method: Drug concentrations are given in ng/mL.
A 1:1 mixture of ecotropic and amphotropic packaging cells was transfected with retroviral vector pLNCX carrying the anti-khcs GSE using a standard calcium phosphate procedure. […] This virus-containing supernatant was used to infect NIH 3T3 cells, 10 times with 12 hour intervals. Control cells were infected in parallel with the insert-free vector virus obtained by the same procedure. […] DNA from the infected cells was analyzyed by Southern blot hybridization with a virus-specific probe.
The infected cell population described in Example 7 were analyzed for resistance to several anticancer drugs by a growth inhibition assay. For this assay, 10^4 cells per well were plated in 12-well plated and exposed to increasing concentrations of different drugs for 4 days. Relative cell numbers were measured by the methylene blue staining assay (Perry et al., 1992, Mutation Res. 286: 189-197). […] All of these drugs are known to induce DNA damage, albeit by different mechanism.

NIH 3T3 cells [2] = assay: long-term growth inhibition assays (cytostatic and cytotoxic effects), cells carrying anti-khcs GSE vs control; format: cell-based, mouse; conditions: for resistance or sensitivity of GSE-carrying cells to the drug, long-term assay: four days in drug, then two or six days without drug, anti-khcs cells vs control; for sensitivity of anti-khcs GSE cells to the drug (surviving cells as percentage of growth without drug): 2x10^4 cells per dish, five days in drug, FIGS. 12A and 12B
Method: Cells were incubated with the drugs for 4 days, followed by 2 or […] in drug-free media, as indicated. Cell growth, presented in arbitrary units, was evaluated by methylene blue staining.
To further characterize the nature of drug resistance conferred by anti-khcs, the above-described short-term growth inhibition assays were followed by long-term growth inhibition assays which measured both the cytostatic and the cytotoxic effects of different drugs. These assays were carried out by incubating the cells for four days in the presence of the drugs, followed by either two or six days in the absence of the drug, to allow for programmed cell death, which is frequently associated with recovery from drug-induced inhibition (Kung et al., 1990, Cancer Res. 50: 7307-7317).
Thus, in the experiment shown in FIGS. 12A and 12B, NIH 3T3 cells carrying the anti-khcs GSE and control cells without the GSE were plated at a density of 2×10^4 per culture dish and grown for five days in concentrations of either colchicine or vinblastine. The cells were then fixed and stained, and the number of surviving cells determined and shown as a percentage of cell growth in the absence of drug.

NIH 3T3 cells [3] = assay: dynamics of cell growth during and after drug treatment, anti-khcs GSE cells vs control; format: cell-based, mouse; conditions: for effect of the drug in continuous presence / cell death after removal of the drug: 250 ng/mL etoposide, 20 ng/mL camptothecin, 40 ng/mL colchicine; for effect of anti-khcs GSE on the growth-inhibitory effect of the drug: 5 or 11 days continuous exposure, anti-khcs cells vs control; for cell death after removal of the drug: control cells; for cell death after removal of the drug / effect of anti-khcs GSE on cell death after release from the drug: drug removed after 5 days; for overall change in drug resistance conferred by anti-khcs GSE, release vs continuous exposure: long-term, 11 days
Method: Cell growth was measured as described for FIGS. 12A and 12B. Cells were plated and one day later (indicated by the first arrow) the indicated drugs were added at concentrations as described. Four days later (indicated by the second arrow), the drugs were removed from some of the plates. Solid lines indicate cell growth in the continuous presence of the drug, and broken lines indicate cell growth after removal of the drug.
In these experiments (shown in FIGS. 13A through 13D), NIH 3T3 cells were treated with the corresponding drugs for 5 days, and then incubated for additional 6 days either in the presence or in the absence of the drug. […] After 11 days of drug exposure the total cell number in the etoposide- or camptothecin-treated populations of control cells was a little lower than after 5 days of drug exposure, but in the colchicine-treated control cell population a slow cell growth was still detectable. In the experiments where the drug was removed after 5 days, cell growth was initially activated for all three drugs.
The expression of the anti-khcs GSE had different effects on the growth inhibition and recovery-associated cell death induced by these drugs.

NIH 3T3 cells [4] = assay: etoposide selection after retroviral transduction of GSEs; format: cell-based, mouse; conditions: recloned proviral inserts in LNCX vector
Method: This selection was carried out directly on virus-producing packaging cells, in the expectation that cells whose resistant phenotype is caused by the GSE expression will produce virus particles carrying such a GSE. The mixture of amphotropic and ecotropic packaging cells was transfected with the cDNA library in the LNCX vector, prepared according to Example 1, and the virus was allowed to spread through the population for 9 days.
The proviral inserts contained in the etoposide-selected NIH 3T3 cells were analyzed by PCR. […] Individual PCR-amplified fragments were recloned into the LNCX vector in the same position and orientation as in the original plasmid, as illustrated in FIG. 4C. […] These GSEs wee named anti-khcs, VPA and VP9-11.

NIH 3T3 cells [5] = assay: etoposide resistance with GSE under IPTG-inducible promoter; format: cell-based, mouse; conditions: 5 mM IPTG; IPTG-dependent; vs insert-free vector
Source text: The components of this system include an enhancer-dependent promoter, combined in cis with multiple repeats of the bacterial lac operator, and a gene expressing LAP265, an artificial regulatory protein derived from the lac repressor and a mammalian transcriptional activator. The anti-khcs GSE was cloned into the plasmid pX6.CLN, which contains the inducible promoter used by Baim et al., supra (a gift of Dr. T. Shenk) which expresses the inserts from an enhancerless SV40 early gene promoter supplemented with 21 repeats of the lac operator sequence. The resulting plasmid, which contains no selectable markers, was co-transfected into NIH 3T3 cells together with the LNCX plasmid carrying the neo gene.

[6] = tested on: primary mouse embryo fibroblasts (MEF); assay: life span / immortalization of senescent primary fibroblasts after infection with GSE virus; format: cell-based
Method: The virus carrying the anti-khcs GSE was treated for the ability to increase the life span of primary mouse embryo fibroblasts (MEF). MEF were prepared from 10 day old mouse embryos by a standard trypsinization procedure and senescent cells were frozen at different passages prior to crisis. Senescent MEF, two weeks before crisis, were infected with recombinant retroviruses carrying LNCX vector either without an insert or with anti-khcs.

[7] = tested on: primary human fibroblasts; assay: life span of primary human skin fibroblasts after infection with GSE virus; format: cell-based
Method: Primary human fibroblasts, derived from human skin, were obtained from the Aging Cell Repository of the National Institutes of Aging. The cells were grown in DMEM with 20% fetal calf serum supplemented with twice the concentration of amino acids and vitamins normally used to supplement normal human skin fibroblast growth in culture. Cells at the fifth passage were infected with either the control pLNCX virus or the virus carrying mouse anti-khcs GSE (produced as described above in Example 3).

NIH 3T3 cells [8] = assay: growth parameters of multiply-infected cells; format: cell-based, mouse; conditions: multiple integrated provirus copies; normalised after several passages
Source text: A 1:1 mixture of ecotropic and amphotropic packaging cells was transfected with retroviral vector pLNCX carrying the anti-khcs GSE using a standard calcium phosphate procedure. Two weeks later, the virus titer, as measured by the formation of G418- resistance NIH 3T3 colonies, reached >10^6 infectious units per mL as a result of “ping-pong” infection (see Bodine et al., 1990, Proc. Natl. Acad. Sci. USA 87: 3738-3742). This virus-containing supernatant was used to infect NIH 3T3 cells, 10 times with 12 hour intervals. Control cells were infected in parallel with the insert-free vector virus obtained by the same procedure. […] DNA from the infected cells was analyzyed by Southern blot hybridization with a virus-specific probe.
At this stage, the cells were frozen and used for the experiments described below.

Molecule: Cc1c2oc3c(C)ccc(C(=O)N[C@@H]4C(=O)N[C@H](C(C)C)C(=O)N5CCC[C@H]5C(=O)N(C)CC(=O)N(C)[C@@H](C(C)C)C(=O)O[C@@H]4C)c3nc-2c(C(=O)N[C@@H]2C(=O)N[C@H](C(C)C)C(=O)N3CCC[C@H]3C(=O)N(C)CC(=O)N(C)[C@@H](C(C)C)C(=O)O[C@@H]2C)c(N)c1=O [actinomycin D] (I: T[dV]P[Sar][NMeV] / II: T[dV]P[Sar][NMeV]; ester I:1-I:C, II:1-II:C; linker I:N-II:N via Actinocin(9to1))
- change in resistance to the cytostatic effects of the drug induced by anti-khcs GSE (NIH 3T3 cells [1]): no increase in resistance was observed

Molecule: COc1cc([C@@H]2c3cc4c(cc3[C@@H](O[C@@H]3O[C@@H]5CO[C@@H](C)O[C@H]5[C@H](O)[C@H]3O)[C@H]3COC(=O)[C@H]23)OCO4)cc(OC)c1O [etoposide]
- resistance or sensitivity of GSE-carrying cells to the drug, long-term assay (NIH 3T3 cells [2]): resistant
- effect of the drug in continuous presence (NIH 3T3 cells [3]): growth inhibition but little detectable cell death
- effect of anti-khcs GSE on the growth-inhibitory effect of the drug (NIH 3T3 cells [3]): decreased the growth-inhibitory effect of the drug to the same, relatively small extent
- cell death after removal of the drug (NIH 3T3 cells [3]): extensive cell death
- effect of anti-khcs GSE on cell death after release from the drug (NIH 3T3 cells [3]): decreased the amount of cell death
- overall change in drug resistance conferred by anti-khcs GSE, release vs continuous exposure (NIH 3T3 cells [3]): much more pronounced after release from the drug

Molecule: COc1cc2c(c(OC)c1OC)-c1ccc(OC)c(=O)cc1[C@@H](NC(C)=O)CC2 [colchicine]
- change in resistance to the cytostatic effects of the drug induced by anti-khcs GSE (NIH 3T3 cells [1]): no increase in resistance was observed
- sensitivity of anti-khcs GSE cells to the drug (surviving cells as percentage of growth without drug) (NIH 3T3 cells [2]): hypersensitivity
- resistance or sensitivity of GSE-carrying cells to the drug, long-term assay (NIH 3T3 cells [2]): hypersensitive
- effect of the drug in continuous presence (NIH 3T3 cells [3]): growth inhibition but little detectable cell death
- effect of anti-khcs GSE on the growth-inhibitory effect of the drug (NIH 3T3 cells [3]): more susceptible to the growth-inhibitory effect
- cell death after removal of the drug (NIH 3T3 cells [3]): only limited cell death

Molecule: CC[C@]1(O)C[C@@H]2CN(CCc3c([nH]c4ccccc34)[C@@](C(=O)OC)(c3cc4c(cc3OC)N(C)[C@H]3[C@@](O)(C(=O)OC)[C@H](OC(C)=O)[C@]5(CC)C=CCN6CC[C@]43[C@@H]65)C2)C1 [vinblastine]
- sensitivity of anti-khcs GSE cells to the drug (surviving cells as percentage of growth without drug) (NIH 3T3 cells [2]): hypersensitivity
- resistance or sensitivity of GSE-carrying cells to the drug, long-term assay (NIH 3T3 cells [2]): hypersensitive

Molecule: COc1cccc2c1C(=O)c1c(O)c3c(c(O)c1C2=O)C[C@@](O)(C(=O)CO)C[C@@H]3O[C@H]1C[C@H](N)[C@H](O)[C@H](C)O1 [Adriamycin, doxorubicin]
- resistance or sensitivity of GSE-carrying cells to the drug, long-term assay (NIH 3T3 cells [2]): resistant

Molecule: CC[C@@]1(O)C(=O)OCc2c1cc1n(c2=O)Cc2cc3ccccc3nc2-1 [camptothecin]
- effect of the drug in continuous presence (NIH 3T3 cells [3]): growth inhibition but little detectable cell death
- effect of anti-khcs GSE on the growth-inhibitory effect of the drug (NIH 3T3 cells [3]): small decrease of the growth-inhibitory effect
- cell death after removal of the drug (NIH 3T3 cells [3]): extensive cell death
- effect of anti-khcs GSE on cell death after release from the drug (NIH 3T3 cells [3]): slight increase in cell death
- overall change in drug resistance conferred by anti-khcs GSE, release vs continuous exposure (NIH 3T3 cells [3]): no significant long-term difference

B1: anti-khcs: genetic suppressor element encoding antisense RNA for mouse kinesin heavy chain gene khcs (SEQ.ID.No.:3), in LNCX retroviral vector (nucleic acid)
antisense: CTTGATCCCTTCTGGTTGATGCCAGAAGCTCTTCCTGATCCAGCATTTGTATCTTCAATTTCTCTACCAATTGGCTTTGTTGGTTAATCTCTTCATCCTTGTCATCAAGTTGTTTATACAATTTAGCAAGTTCTTCTTCACACTTTCTTCTTTCAGCATCGGTAAAACTACCAGCCATTCCGACTGCAGCAGCTGGTTTATCACTGGTAATAGCAATATCTTTATCCGCTGTGAAGGCTTCCAAATTAGCTTTCTCTTTGTCAAACTGCTCATCAATAGGCACTGTCTCCCCGTTACGCCAACGGTTTAGCTCGTTTTCCAGCCACT
modifications: in LNCX retroviral vector
- ability to confer etoposide resistance after retroviral transduction (NIH 3T3 cells [4]): induce etoposide resistance
- etoposide resistance of transfectants (NIH 3T3 cells [5]): clearly increased etoposide resistance
- features of neoplastic transformation in post-crisis cells ([6]; microscopic): no microscopically visible features of neoplastic transformation
- proportion of cells surviving the crisis ([6]; relative to uninfected MEF or control LNCX virus, two weeks after crisis): great increase
- additional passages survived ([7]; after control cells went into crisis): at least five
- growth when control cells went into crisis ([7]; infected at fifth passage, four passages later): continued to grow
- growth rate and plating efficiency of freshly-obtained multiply-infected cells (NIH 3T3 cells [8]): decreased growth rate and plating efficiency
